The values that follow come from patent US10335365B2, “Bladder cancer specific ligand peptides” (The Regents of the University of California, priority 2009, dated 2019).

Positions of bridges follow the written chain, without caps; N, C: chain ends. Non-standard residues stand in square brackets, D forms with d. No end group written: not given here.

Experiment [1] has as its system parental K562 cells or cells transfected other integrins. Kind of experiment: Bead binding to parental K562 cells or cells transfected with other integrins. Particulars: OBOC beads bearing PLZ4. How it is done:
Here, OBOC beads bearing PLZ4 peptides on the surface were incubated with K562 cells transfected with various integrins. K562 cells express endogenous a501 integrin. […] Several other ligands obtained from the initial screening also contain the DGR motif. […] To identify which amino acids are involved in determining cell binding and binding specificity, “alanine walk” was performed combined with the rainbow bead coding methods (Luo, et al., J Comb Chem, (2008) 10: 599-604). The amino acids aspartic acid (D, the X2 position), arginine (R, X4) and phenylalanine (F, X7) are important for cell binding. Replacement of any of these amino acids with alanine completely abolished the binding of the peptides to 5637 cells (FIG. 6B). […] Methionine at the X5 position could be replaced to many other amino acids without compromising the binding affinity. Based on this analysis, the three amino acids (D, G and R) at the N-terminus together with the two amino acids (G and F) at the C-terminus determine the binding specificity. Therefore, the binding pocket may be in the clover shape: one for the N-terminal three amino acids, one for the C-terminal two amino acids and a middle pocket. So w the depth of the middle binding pocket by adding different numbers of glycine residue to the X5 position. […]

Experiment [2] has as its system K9TCC, K9TCC-PU-In and K9TCC-PU-Nk cells. Nature of the experiment: WST-8 cell proliferation assay. Particulars: 48 hours, various concentrations, compared with PBS control. Format: cell-based, canine. How it is done:
(§1) FIG. 8A-B. Binding affinity and biological effects of PLZ4 against canine TCC cell lines. A. Binding affinity of PLZ4 against K9TCC-PU and K9TCC-PU-In. Twenty thousands of K9TCC-PU and K9TCC-PU-In were seeded in 96 well plates. After culture for 24 hours, cells were fixed and incubated with different concentrations of PLZ4-biotin for 1.5 hours following avidin-HRP for another 1 hour. Cells treated with avidin-HRP only were served as background control. The color was developed using TMB substrate and read by ELISA readers. The experiment was performed in triplicates and repeated for 3 times. The mean value of the 3 experiments were shown. B. Biological effects of PLZ4 on canine TCC cell lines. Ten thousand K9TCC-PU-In and K9TCC-PU cells were seeded in the 96 well plates and treated with increasing concentrations of PLZ4 or PBS for 2 days. The cell proliferation assay was assessed by WST-8 assay per manufacturer's protocol. Cells treated with PBS were used as 100% control. Each group was performed in triplicate, repeated for 3 times. Mean values at each concentration are presented.
Ligand binding on the cell surface molecules may initiate cell signaling and exert biological effects on cells. The effect of PLZ4 on cell viability and proliferation was determined, as it may have potential clinical applications. […]

A further experiment concerns fibroblasts. Nature of the experiment: Whole cell bead binding assay, fibroblasts. Particulars: peptide on beads.
The test system of experiment [3] is vascular endothelial cells. Kind of experiment: Binding to vascular endothelial cells.
The subject of another experiment is K9TCC-PU-In. Nature of the experiment: Binding affinity by PLZ4-biotin / avidin-HRP on fixed K9TCC-PU-In cells. Set-up: species or system canine. As to conditions: restated in b239 without cell line, read-out: Kd50. How it is done:
as §1
To further quantify the binding affinity, K9TCC-PU and K9TCC-PU-In cells were seeded in 96 well plates, fixed, and incubated with increasing concentrations of PLZ4-biotin followed by avidin-HRP. […]

As for “cQDGRMGFc ([dC]QDGRMGF[dC]; disulfide 1-9 (inferred)) [PLZ4, bladder cancer-specific ligand peptide]”, in experiment [1], the “binding to parental K562 cells or cells transfected with other integrins” value is “not to the parental K562 cells or cells transfected other integrins”. Also, the cell proliferation/viability entry in experiment [2] is given as “no significant changes in cell proliferation/viability”. Moreover, in the experiment with fibroblasts, the binding to fibroblasts result is “did not bind”. Also, the “binding to vascular endothelial cells” value in experiment [3] was “did not bind”. In addition, in the experiment with K9TCC-PU-In, the Kd came to 10.3 µM.
